Laboratory results from patent publication US6815446B1, “Selective antagonists of A2B adenosine receptors” (Vanderbilt University, priority 1999, dated 2004).
Where two headings read alike, the source gives them in different places. One block for each compound: values may come before it.

How the values were obtained:
[1] = target: T1, rat A3 (Rattus norvegicus, UniProt P28647); conditions: rat (r); [125I]APNEA, CHO cells transfected with rat A3; read-out: Antagonist potency (K1 or KB) A3 Receptor; cited from earlier work
T1 construct: expressed in transfected cells
T1 sequence (P28647 1-320): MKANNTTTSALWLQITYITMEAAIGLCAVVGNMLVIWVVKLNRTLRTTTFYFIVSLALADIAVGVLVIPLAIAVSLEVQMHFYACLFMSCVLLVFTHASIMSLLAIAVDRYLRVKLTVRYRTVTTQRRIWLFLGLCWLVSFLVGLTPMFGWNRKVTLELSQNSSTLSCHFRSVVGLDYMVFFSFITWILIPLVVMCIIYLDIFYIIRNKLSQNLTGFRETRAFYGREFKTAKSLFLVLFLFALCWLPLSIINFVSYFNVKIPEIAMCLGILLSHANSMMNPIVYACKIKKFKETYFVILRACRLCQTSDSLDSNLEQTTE

[2] = target: T2, human A3 (Homo sapiens, UniProt P0DMS8); experiment: Displacement of [3H]NECA from CHO cells transfected with human A3; format: binding; conditions: read-out: Antagonist potency (K1 or KB) A3 Receptor
T2 construct: expressed in transfected cells
T2 sequence (P0DMS8 1-318): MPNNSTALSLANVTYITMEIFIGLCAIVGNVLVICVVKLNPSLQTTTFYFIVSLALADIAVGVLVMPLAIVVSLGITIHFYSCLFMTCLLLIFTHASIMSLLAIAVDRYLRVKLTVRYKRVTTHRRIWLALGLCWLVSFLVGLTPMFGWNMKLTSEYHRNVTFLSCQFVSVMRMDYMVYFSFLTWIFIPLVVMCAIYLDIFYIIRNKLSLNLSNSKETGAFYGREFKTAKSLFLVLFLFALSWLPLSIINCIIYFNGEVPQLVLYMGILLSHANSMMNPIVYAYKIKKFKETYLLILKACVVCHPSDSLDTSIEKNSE

[3] = target: T3, A2A Receptor (Homo sapiens, UniProt P29274); experiment: Inhibition of CGS 21680-stimulated cAMP in HMC-1 cells; format: cell-based; conditions: human (h), read-out: Antagonist potency (K1 or KB) A2A Receptor
T3 construct: endogenous in cells; host or cells: HMC-1 cells
T3 sequence (P29274 whole entry): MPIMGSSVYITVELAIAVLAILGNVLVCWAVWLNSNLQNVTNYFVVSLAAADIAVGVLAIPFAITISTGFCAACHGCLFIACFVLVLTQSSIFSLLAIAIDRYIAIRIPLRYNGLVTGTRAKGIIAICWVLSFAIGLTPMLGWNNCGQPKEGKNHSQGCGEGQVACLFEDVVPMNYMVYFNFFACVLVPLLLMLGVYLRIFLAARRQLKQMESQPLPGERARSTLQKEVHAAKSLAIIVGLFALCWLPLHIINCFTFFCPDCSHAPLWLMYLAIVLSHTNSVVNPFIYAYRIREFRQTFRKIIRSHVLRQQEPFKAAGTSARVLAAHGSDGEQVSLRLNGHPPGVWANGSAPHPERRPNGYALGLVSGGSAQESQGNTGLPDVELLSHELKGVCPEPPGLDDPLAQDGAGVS

[4] = target: T4, human A1 (Homo sapiens, UniProt P30542); experiment: Displacement of [3H]DPCPX from membranes of CHO cells transfected with human A1; format: binding; conditions: read-out: Antagonist potency (K1 or KB) A1 Receptor
T4 construct: expressed in transfected cells
T4 sequence (P30542 1-326): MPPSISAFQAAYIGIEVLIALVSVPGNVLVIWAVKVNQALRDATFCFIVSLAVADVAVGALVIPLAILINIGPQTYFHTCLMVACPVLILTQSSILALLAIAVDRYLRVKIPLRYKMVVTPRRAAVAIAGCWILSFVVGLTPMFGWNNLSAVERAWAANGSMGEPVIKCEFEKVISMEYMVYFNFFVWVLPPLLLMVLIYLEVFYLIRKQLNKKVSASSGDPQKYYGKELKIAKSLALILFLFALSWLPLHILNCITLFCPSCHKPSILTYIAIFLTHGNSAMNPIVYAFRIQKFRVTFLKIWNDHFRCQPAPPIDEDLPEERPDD

[5] = target: T5, A2B Receptor (Homo sapiens, UniProt P29275); experiment: Inhibition of NECA-stimulated cAMP in HEL (human erythroleukemia) cells, Schild analysis; format: cell-based; parameters: endogenous in cells; host or cells: human erythroleukemia (HEL) cells; conditions: for Schild analysis, type of antagonism at A2B receptors: NECA cAMP dose-response curves in human erythroleukemia cells with increasing antagonist concentrations, FIG. 1; for Kb: human (h), NECA-stimulated cAMP in HEL cells, read-out: Antagonist potency (K1 or KB) A2B Receptor
T5 sequence (P29275 1-332): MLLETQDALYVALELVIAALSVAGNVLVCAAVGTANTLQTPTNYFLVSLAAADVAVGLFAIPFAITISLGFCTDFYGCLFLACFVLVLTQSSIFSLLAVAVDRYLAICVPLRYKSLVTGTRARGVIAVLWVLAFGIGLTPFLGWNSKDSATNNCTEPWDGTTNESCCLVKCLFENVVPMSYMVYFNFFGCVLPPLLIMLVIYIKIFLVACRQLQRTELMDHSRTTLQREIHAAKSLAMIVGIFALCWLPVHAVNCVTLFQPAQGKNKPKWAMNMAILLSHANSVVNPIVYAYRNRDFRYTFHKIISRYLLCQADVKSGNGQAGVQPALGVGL
From the text: A Schild analysis derived from dose-response curves for accumulation of cAMP produced by NECA in human erythroleukemia cells in the absence and in the presence of increasing concentrations of the antagonists. […] The intercept at the x-axis is an estimate of the Ki of the antagonists.

[6] = target: T5, A2B Receptor; conditions: background statement; cited from earlier work
[7] = target: T6, A1 Receptor (Rattus norvegicus, UniProt P25099); conditions: read-out: Antagonist potency (K1 or KB) A1 Receptor; rat (r); [3H]PIA, rat brain membranes; cited from earlier work
T6 sequence (P25099 1-326): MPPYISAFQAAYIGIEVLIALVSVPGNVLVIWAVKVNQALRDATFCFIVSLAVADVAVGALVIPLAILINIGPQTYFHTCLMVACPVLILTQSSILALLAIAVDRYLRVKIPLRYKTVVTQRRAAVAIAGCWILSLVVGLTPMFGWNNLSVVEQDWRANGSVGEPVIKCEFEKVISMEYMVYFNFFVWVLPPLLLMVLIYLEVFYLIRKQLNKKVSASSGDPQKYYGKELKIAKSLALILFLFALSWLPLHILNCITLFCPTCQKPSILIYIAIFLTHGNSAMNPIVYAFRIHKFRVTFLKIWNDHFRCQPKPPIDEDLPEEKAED

[8] = target: A2A Receptor (Rattus norvegicus, UniProt P30543); conditions: read-out: Antagonist potency (K1 or KB) A2A Receptor; rat (r); CGS 21680 radioligand, rat striatal membranes; cited from earlier work
Chain of A2A Receptor (Rattus norvegicus, UniProt P30543) (P30543 whole entry): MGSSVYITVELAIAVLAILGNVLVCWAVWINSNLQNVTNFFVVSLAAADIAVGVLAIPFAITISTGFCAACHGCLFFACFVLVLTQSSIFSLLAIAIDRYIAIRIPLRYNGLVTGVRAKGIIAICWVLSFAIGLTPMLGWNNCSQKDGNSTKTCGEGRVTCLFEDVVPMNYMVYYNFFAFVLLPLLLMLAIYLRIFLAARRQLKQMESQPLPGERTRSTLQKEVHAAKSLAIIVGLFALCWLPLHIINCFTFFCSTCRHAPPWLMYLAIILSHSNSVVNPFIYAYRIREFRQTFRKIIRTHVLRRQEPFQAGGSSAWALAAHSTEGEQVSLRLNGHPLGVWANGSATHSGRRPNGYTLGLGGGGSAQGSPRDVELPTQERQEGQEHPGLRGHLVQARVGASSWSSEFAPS

[9] = target: T4, human A1; conditions: human (h); [3H]DPCPX, HEK-293 cells transfected with human A1; read-out: Antagonist potency (K1 or KB) A1 Receptor; cited from earlier work

Structure (SMILES): Cn1c(=O)c2[nH]cnc2n(C)c1=O [Theophylline]
- Kb [1]: > 100 µM

Structure (SMILES): CCNC(=O)[C@H]1O[C@@H](n2cnc3c(NCc4ccccc4)ncnc32)[C@@H](O)C1O (stereo partly shown) [N^6-benzyl NECA]
- Agonist activity or affinity at A2B receptors [6]: very low affinity

The next lines start with results.

- Kb [2]: 53 µM
- Kb [3]: 20 µM
- Kb [4]: 31 µM
- Schild analysis, type of antagonism at A2B receptors [5]: competitive antagonism
- Potency compared with enprofylline ([5]; comparison from the potency table): much higher than that of enprofylline
- Kb [5]: 0.525 µM
Structure (SMILES): CC(C)Cn1c(=O)[nH]c(=O)c2[nH]c(N3CCCC3)nc21 [Formula (I)]

- Schild analysis, type of antagonism at A2B receptors [5]: competitive antagonism
- Kb [5]: 0.14 µM
Structure (SMILES): CCCn1c(=O)c2[nH]c(-c3ccc(S(=O)(=O)O)cc3)nc2n(CCC)c1=O [DPSPX, 1,3-dipropyl-8-p-sulfophenylxanthine]
- Affinity of xanthine antagonists at A2B receptors [6]: mid to high nM range
- Kb [7]: 0.14 µM
- Kb [1]: > 100 µM
- Kb [8]: 0.79 µM

- Schild analysis, type of antagonism at A2B receptors [5]: competitive antagonism
Structure (SMILES): CCCn1c(=O)[nH]c(=O)c2nc[nH]c21 [Enprofylline]
- Kb [9]: 156 µM
